Patent EP4635959A1, “NOVEL CRYSTALLINE FORM OF MAGNESIUM-SERINATE AND METHOD FOR PRODUCING SAME” (Astrogen, Inc., priority 2022, dated 2024)

Assays:
primary mouse astrocytes = assay: Cytoprotective effect on oxidative stress induced by DMNQ (MTT cell viability); assay type: cell-based; conditions: for cell viability: pre-treated 6 hours with 1 mM, 2 mM, 5 mM, then DMNQ (30 µM) with compound for 16 hours, MTT, Fig. 8
Description: A 1-day-old mouse brain was removed, the olfactory bulb was removed, and the meninges were peeled off. After collecting the resultant in a 50 mL tube including HBSS (Hank's balanced salt solution) and centrifuging at 250 × g for 1 minute, the supernatant was removed. 2 mL of trypsin/EDTA (0.5 %), 8 mL of HBSS buffer, and 0.2 mL of DNase were mixed and reacted in a 37 °C constant temperature water bath for 30 minutes. After adding 18 mL of the culture medium and 2 mL of trypsin/EDTA thereto and pipetting 10 times, the resultant was filtered using a 40 µm cell strainer. Then, the supernatant was removed after centrifugation at 800 × g for 2 minutes. After adding 5 mL of the culture solution thereto, the number of cells was confirmed using a hemocytometer and the cells were cultured to obtain primary mouse astrocytes.
After inoculating cells (primary astrocytes, 1 × 10^5 cells) per well in a 96-well plate and culturing at 5 % CO2 and 37 °C for 24 hours to obtain a cell monolayer, the composition was diluted with a cell inoculation medium and the diluted composition each at a concentration of 0 mM, 1 mM, 2 mM, and 5 mM was inoculated at 100 µL/well, and then cultured in a 5 % CO2 and 37 °C incubator for 6 hours. […] Then, after removing the culture medium, 0.5 mg/mL of MTT solution was added to each well in an amount of 100 µL and reacted in a 5 % CO2 and 37 °C incubator for 2 hours. After completely removing the MTT solution and drying the culture plate, the formazan crystals formed in the cells were dissolved with DMSO, and the absorbance was measured at 590 nm with an ELISA plate reader to evaluate cell viability and drug efficacy.

[1] = pH measurement of aqueous sample; assay type: physicochemical; conditions: 0.5 g of sample in water, final volume 10 mL
Description: (§1) Moisture and pH evaluations were performed in the same manner as in Experimental Example 7, and the heavy metal test and the content test were performed in the same manner as in Example 1.
(§2) The crystalline form of the present application prepared in Example 1 and the amorphous form of AST-011 (Comparative Example 2) were comparatively evaluated for the following test items by the following methods, and the results are shown in Table 7 below. - Appearance evaluation: Visual observation - Moisture measurement: According to the moisture measurement method (Karl Fischer method) of the general test method of the 12th edition of the Korean Pharmacopoeia, measured by adding 0.5 g of the sample into a moisture meter (Mettler Toledo, V10-S, Switzerland). - Infrared spectrum measurement method (IR): Measurement was made with FT-IR equipment (PerkinElmer, Spectrum 2, USA) according to the ATR measurement method of the general test method of the 12th revision of the Korean Pharmacopoeia. - pH measurement: 0.5 g of the sample was added into a 10 mL volumetric flask, and water was added to a final volume of 10 mL, and measurement was made with a pH meter (Mettler Toledo, FP-20 Switzerland). - XRD and DSC analyses: The analyses were performed in the same way as in Experimental Examples 2 and 3.

[2] = Moisture measurement (Karl Fischer method); assay type: physicochemical; conditions: 0.5 g of sample
Description: as §1, §2

[3] = Evaluation of occurrence of polymorphic transition on storage (PXRD and DSC); assay type: physicochemical; conditions: for DSC Endothermic Temperature: (dec.)
Description: In order to confirm whether the polymorphic transition of the magnesium-serinate crystalline form of the present invention occurs over time, PXRD and DSC analyses were performed in the initial state and after 4 weeks to confirm whether or not the polymorphic transition occurred.
Specifically, the crystalline form prepared in Example 2 was added into a polyethylene bag, placed in a stability chamber under conditions of a temperature of 40 °C and a relative humidity of 75 %, and stored for 4 weeks. PXRD and DSC analyses were performed in substantially the same manner as in Experimental Examples 2 and 3.

[4] = Appearance evaluation on storage (visual observation); assay type: physicochemical; conditions: storage for 3 months under the same conditions as AST-011
Description: as §2, with “3. […]” for “3.”

[5] = Stability test under harsh condition (qNMR, maleic acid standard); assay type: physicochemical
Description: In order to confirm the stability of the crystalline form of the present invention depending on conditions, a stability test was conducted under harsh conditions.
The magnesium-serinate crystalline form prepared in Example 2 was stored in a solid state at 70 °C and in an aqueous solution having a concentration of 0.5 mg/mL at 25 °C (60.0 % relative humidity) for 21 days, respectively, and then maleic acid was set as a standard substance, and the stability (measurement of content and related materials) was confirmed through qNMR analysis.
For the qNMR analysis method, analysis conditions were established by measuring the spin-lattice relaxation time T1 of the nuclide ^1H of magnesium-serinate on the sample obtained through the preliminary stress test. The T1 value was set at 4.708 seconds, and the measurement waiting time (d1: delay time) and measurement time (at: acquisition time) were set based on this value. The measurement waiting time (d1) was set to 30 seconds, and the measurement time (at) was set to being equal to or greater than the T1 value.
For the ^1H-NMR measurement for qNMR analysis, JEOL's JNM-ECX400I (400 MHz) NMR equipment was used, and spectral width (sw) was set at 6,000 Hz to sufficiently reflect the frequency range from 0 ppm to 10 ppm.

[6] = initial vs after 4 weeks at 40 °C, relative humidity 75 %
[7] = 25°C, Aqueous solution state (0.5 mg/mL, 60.0 % relative humidity), initial state
[8] = 70°C, Solid state, initial state

Row | pH [1] | Moisture Content [2] | Moisture Content ([2]; listed as Example 2) | DSC Endothermic Temperature ([3]; after 4 weeks at 40 °C and relative humidity of 75 %, polyethylene bag) | Result of Comparative Analysis [3, 6] | Result of PXRD Analysis [3, 6] | DSC Endothermic Temperature ([3]; initial) | Purity of magnesium-serinate (%) ([5]; 25°C, Aqueous solution state (0.5 mg/mL, 60.0 % relative humidity), 9 days) | Concentration of Total Related Materials (%) ([5]; 25°C, Aqueous solution state (0.5 mg/mL, 60.0 % relative humidity), 21 days) | Concentration of Total Related Materials (%) [5, 7] | Purity of magnesium-serinate (%) [5, 7] | Purity of magnesium-serinate (%) ([5]; 70°C, Solid state, 9 days) | Concentration of Total Related Materials (%) ([5]; 70°C, Solid state, 21 days) | Concentration of Total Related Materials (%) [5, 8] | Purity of magnesium-serinate (%) [5, 8] | Structure (SMILES) | cell viability (primary mouse astrocytes) | Appearance (stability) [4] | cytotoxicity at 30 µM (primary mouse astrocytes; Mus musculus, Astrocyte, 16 h, read-out: cells killed by oxidative stress)
1 | – | – | – | – | – | – | – | – | – | – | – | – | – | – | – | N[C@@H](CO)C(=O)O [Comparative Example 1, L-serine] | excellent | – | –
2 | 10.3 | 0.2% | 0.1% | 282.5 °C (dec.) | no occurrence of polymorphic transition | same crystalline form | 283.0 °C (dec.) | 100.07% | 0.00% | 0.00% | 100.12% | 100.15% | 0.00% | 0.00% | 100.12% | N[C@@H](CO)C(=O)[O-].N[C@@H](CO)C(=O)[O-].[Mg+2] [Crystalline Form of Present Application, magnesium-di-(2S)-2-amino-3-hydroxypropanoate] | excellent | Fig. 7(b) light gray or white powder (stability: no change after 3 months) | –
3 | – | – | – | – | – | – | – | – | – | – | – | – | – | – | – | COC1=C(OC)C(=O)c2ccccc2C1=O [DMNQ, 1,4-naphthoquinone] | – | – | ~50%
